Data published in ChEMBL document CHEMBL5584242, “Discovery of pyridazinone derivatives bearing tetrahydroimidazo[1,2-a]pyrazine scaffold as potent inhibitors of transient receptor potential canonical 5 to ameliorate hypertension-induced renal injury in rats” (Eur J Med Chem, 2024).
Each block holds one compound with its values, some of them ahead of it.

Key:
[1] = human, microsomes
[2] = rat, microsomes
[3] = mouse, microsomes
[4] = in vitro; conditions: human, liver microsomes
[5] = in vitro; conditions: rat, liver microsomes
[6] = in vitro; conditions: mouse, liver microsomes
[7] = in vitro; conditions: human, liver microsomes, F
[8] = in vitro; conditions: rat, liver microsomes, F
[9] = in vitro; conditions: mouse, liver microsomes, F
[10] = Tmax in ICR mouse at 10 mg/kg, po measured upto 24 hrs by LC-MS/MS analysis; type: ADME, organism-based; conditions: in vivo
[11] = Cmax in ICR mouse at 10 mg/kg, po measured upto 24 hrs by LC-MS/MS analysis; type: ADME, organism-based; conditions: in vivo
[12] = Half-life in ICR mouse at 10 mg/kg, po measured upto 24 hrs by LC-MS/MS analysis; type: ADME, organism-based; conditions: in vivo
[13] = Drug distribution in ICR mouse colon at 10 mg/kg, po measured after 1 hr by LC-MS/MS analysis; type: ADME, organism-based; conditions: in vivo
[14] = Drug distribution in ICR mouse kidney at 10 mg/kg, po measured after 1 hr by LC-MS/MS analysis; type: ADME, organism-based; conditions: in vivo
[15] = Drug distribution in ICR mouse liver at 10 mg/kg, po measured after 1 hr by LC-MS/MS analysis; type: ADME, organism-based; conditions: in vivo
[16] = Drug distribution in ICR mouse spleen at 10 mg/kg, po measured after 1 hr by LC-MS/MS analysis; type: ADME, organism-based; conditions: in vivo
[17] = Drug distribution in ICR mouse heart at 10 mg/kg, po measured after 1 hr by LC-MS/MS analysis; type: ADME, organism-based; conditions: in vivo
[18] = Drug distribution in ICR mouse lung at 10 mg/kg, po measured after 1 hr by LC-MS/MS analysis; type: ADME, organism-based; conditions: in vivo
[19] = Drug distribution in ICR mouse brain at 10 mg/kg, po measured after 1 hr by LC-MS/MS analysis; type: ADME, organism-based; conditions: in vivo
[20] = human, microsomes; remark: listed apart in the source
[21] = rat, microsomes; remark: listed apart in the source
[22] = mouse, microsomes; remark: listed apart in the source

CLH [1]: 50.6 mL/min/g
CLH [2]: 60.5 mL/min/g
CLH [3]: 54.2 mL/min/g
half-life [4]: 41.5 min
half-life [5]: 34.7 min
half-life [6]: 38.7 min
Fh [7]: 27.9%
Fh [8]: 42.3%
Fh [9]: 45%
SMILES: COC(c1ccc(F)cc1C(F)(F)F)c1cnc2n1CCN(c1cn[nH]c(=O)c1Cl)C2 (centres undefined)

SMILES: COC(c1ccc(F)cc1Cl)c1cnc2n1CCN(c1cn[nH]c(=O)c1Cl)C2 (stereo in doubt; 12)
Tmax [10]: 60 min
Cmax [11]: 1150 ng/mL
half-life [12]: 118 min
Drug uptake [13]: Active
Drug uptake [14]: Active
Drug uptake [15]: Active
Drug uptake [16]: Active
Drug uptake [17]: Active
Drug uptake [18]: Active
Drug uptake [19]: Not Active
CLH [1]: 17.7 mL/min/g
CLH [2]: 97.3 mL/min/g
CLH [3]: 45 mL/min/g
half-life ([4]; t1/2): 119 min
half-life ([5]; t1/2): 21.6 min
half-life ([6]; t1/2): 46.7 min
Fh [7]: 52.5%
Fh [8]: 31.4%
Fh [9]: 49.7%

SMILES: COC(c1ccc(F)cc1Cl)c1cnc2n1CCN(c1cn[nH]c(=O)c1Cl)C2 (stereo in doubt; 12-2)
t1/2 [20]: 120 min
t1/2 [21]: 14.8 min
t1/2 [22]: 50.3 min
CLH [1]: 17.5 mL/min/g
CLH [2]: 142 mL/min/g
CLH [3]: 41.8 mL/min/g
